# Test results reported in ChEMBL document CHEMBL1201862, “PubChem BioAssay data set” (2004).
# Calls of active or inactive are those of the source.
# Columns and labels:
# Type in all cases: functional
# [1] = biological target: T1, High affinity choline transporter 1 (Homo sapiens, UniProt Q9GZV3); assay: human choline transporter blockers, potency – cell-based, 5-point CRC, membrane potential dye, dose response (AID 504840)
# T1 sequence (Q9GZV3 whole entry): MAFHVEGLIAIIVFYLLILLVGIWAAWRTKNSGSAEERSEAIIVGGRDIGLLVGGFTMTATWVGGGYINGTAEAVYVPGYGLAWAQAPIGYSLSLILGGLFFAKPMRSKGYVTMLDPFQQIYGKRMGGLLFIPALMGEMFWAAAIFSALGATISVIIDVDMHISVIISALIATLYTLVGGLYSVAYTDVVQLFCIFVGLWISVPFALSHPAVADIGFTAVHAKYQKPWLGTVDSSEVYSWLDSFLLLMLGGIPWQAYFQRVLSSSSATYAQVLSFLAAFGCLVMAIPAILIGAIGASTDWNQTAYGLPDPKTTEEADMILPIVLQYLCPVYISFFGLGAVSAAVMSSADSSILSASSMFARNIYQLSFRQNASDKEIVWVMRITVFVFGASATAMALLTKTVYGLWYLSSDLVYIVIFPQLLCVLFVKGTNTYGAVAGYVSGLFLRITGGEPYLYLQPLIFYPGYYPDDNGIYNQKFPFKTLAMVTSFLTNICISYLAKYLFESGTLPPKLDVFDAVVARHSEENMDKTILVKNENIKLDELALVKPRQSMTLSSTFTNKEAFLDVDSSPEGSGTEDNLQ
# [2] = biological target: T1, High affinity choline transporter 1; assay: human choline transporter blockers, potency – cell-based, 10-point CRC, membrane potential dye, dose response (AID 588401);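 note: membrane potential dye fluorescence of choline-evoked depolarization via CHT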
# [3] = biological target: T1, High affinity choline transporter 1; assay: human choline transporter radiolabel uptake blockers – cell-based, 3H-choline uptake, CHT LV-AA trafficking mutant, CRC, dose response (AID 602208)
# [4] = biological target: Dual specificity protein phosphatase 3 (Homo sapiens, UniProt P51452); assay: VHR phosphatase inhibition, dose response, selectivity assay for STEP inhibitor project, biochemical (AID 602374); settings: read-out: IC50_Mean
# [5] = biological target: Tyrosine-protein phosphatase non-receptor type 5 (Homo sapiens, UniProt P54829); assay: PTPN5 enzyme inhibition – biochemical, fluorescence intensity, uHTS hits, confirmation (AID 602372); settings: read-out: IC50_Mean
# [6] = biological target: Tyrosine-protein phosphatase non-receptor type 11 (Homo sapiens, UniProt Q06124); assay: PTPN11 enzyme inhibitors – biochemical, selectivity assay for STEP inhibitor project, dose response (AID 602367); settings: read-out: IC50_Mean
# [7] = biological target: Glucose-6-phosphate 1-dehydrogenase (Homo sapiens, UniProt P11413); assay: inhibition of Homo sapiens G6PD, dose series – biochemical, fluorescence, selectivity assay for P. falciparum G6PD inhibitor project, dose response (AID 504792)
# [8] = HepG2 cell cytotoxicity, cytotoxicity control, set 4 (AID 504910); settings: Mycobacterium tuberculosis
# Interleukin-8 [9] = biological target: T2, Interleukin-8 (Homo sapiens, UniProt P10145); assay: Dose Response confirmation of uHTS small molecule hits for cystic fibrosis induced NFkb Inhibitors in a TNFa-induced IL8 counterscreen.; settings: read-out: IC50_Mean
# T2 sequence (P10145 whole entry): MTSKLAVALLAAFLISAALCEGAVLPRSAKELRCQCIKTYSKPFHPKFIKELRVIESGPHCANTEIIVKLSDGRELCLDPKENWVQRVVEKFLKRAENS
# HEK293 = assay: EBV LMP1 TES2 canonical NF-kB signalling blockers – cell-based, HEK293, luciferase, cherry-pick, dose response (AID 588343); settings: Homo sapiens
# Interleukin-8 [10] = biological target: T2, Interleukin-8; assay: Dose Response confirmation of uHTS small molecule hits for cystic fibrosis induced NFkb Inhibitors in a PAF-induced IL8 counterscreen.; settings: read-out: IC50_Mean
# Chain of Dual specificity protein phosphatase 3 (P51452 whole entry): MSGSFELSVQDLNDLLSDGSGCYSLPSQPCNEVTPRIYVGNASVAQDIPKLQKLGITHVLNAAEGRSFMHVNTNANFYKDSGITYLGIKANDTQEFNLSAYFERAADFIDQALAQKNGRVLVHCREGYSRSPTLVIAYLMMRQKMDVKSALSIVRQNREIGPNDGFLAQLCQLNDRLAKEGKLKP
# Chain of Tyrosine-protein phosphatase non-receptor type 11 (Q06124 whole entry): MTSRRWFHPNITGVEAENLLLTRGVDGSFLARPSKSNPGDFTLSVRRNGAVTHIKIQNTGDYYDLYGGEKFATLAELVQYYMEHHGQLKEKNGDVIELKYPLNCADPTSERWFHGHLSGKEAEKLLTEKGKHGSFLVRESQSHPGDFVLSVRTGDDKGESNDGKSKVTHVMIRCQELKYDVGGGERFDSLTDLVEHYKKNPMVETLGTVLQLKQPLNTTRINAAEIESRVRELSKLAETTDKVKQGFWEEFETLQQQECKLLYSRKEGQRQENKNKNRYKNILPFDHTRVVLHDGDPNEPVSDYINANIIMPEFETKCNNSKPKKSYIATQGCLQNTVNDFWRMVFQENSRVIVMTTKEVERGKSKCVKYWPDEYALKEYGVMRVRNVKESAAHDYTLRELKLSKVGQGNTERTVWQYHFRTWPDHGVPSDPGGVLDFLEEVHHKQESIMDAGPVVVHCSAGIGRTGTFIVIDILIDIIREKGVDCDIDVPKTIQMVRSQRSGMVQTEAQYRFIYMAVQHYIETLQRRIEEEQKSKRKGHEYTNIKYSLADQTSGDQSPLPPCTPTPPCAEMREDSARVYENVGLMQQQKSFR
# Chain of Glucose-6-phosphate 1-dehydrogenase (P11413 whole entry): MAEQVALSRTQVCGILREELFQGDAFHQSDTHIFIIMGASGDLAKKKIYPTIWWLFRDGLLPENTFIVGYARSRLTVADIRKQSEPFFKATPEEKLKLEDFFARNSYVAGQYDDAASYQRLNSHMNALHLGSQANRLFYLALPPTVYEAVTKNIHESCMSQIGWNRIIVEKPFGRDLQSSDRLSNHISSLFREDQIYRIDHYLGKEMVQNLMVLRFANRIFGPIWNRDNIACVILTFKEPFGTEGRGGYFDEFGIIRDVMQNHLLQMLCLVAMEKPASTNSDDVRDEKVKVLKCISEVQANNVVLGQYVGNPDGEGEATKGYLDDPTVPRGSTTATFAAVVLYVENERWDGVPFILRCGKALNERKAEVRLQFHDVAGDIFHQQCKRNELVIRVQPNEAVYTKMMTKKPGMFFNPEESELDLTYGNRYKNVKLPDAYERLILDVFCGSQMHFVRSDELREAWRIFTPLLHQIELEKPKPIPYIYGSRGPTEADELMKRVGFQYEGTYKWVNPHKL
# Chain of Tyrosine-protein phosphatase non-receptor type 5 (P54829 whole entry): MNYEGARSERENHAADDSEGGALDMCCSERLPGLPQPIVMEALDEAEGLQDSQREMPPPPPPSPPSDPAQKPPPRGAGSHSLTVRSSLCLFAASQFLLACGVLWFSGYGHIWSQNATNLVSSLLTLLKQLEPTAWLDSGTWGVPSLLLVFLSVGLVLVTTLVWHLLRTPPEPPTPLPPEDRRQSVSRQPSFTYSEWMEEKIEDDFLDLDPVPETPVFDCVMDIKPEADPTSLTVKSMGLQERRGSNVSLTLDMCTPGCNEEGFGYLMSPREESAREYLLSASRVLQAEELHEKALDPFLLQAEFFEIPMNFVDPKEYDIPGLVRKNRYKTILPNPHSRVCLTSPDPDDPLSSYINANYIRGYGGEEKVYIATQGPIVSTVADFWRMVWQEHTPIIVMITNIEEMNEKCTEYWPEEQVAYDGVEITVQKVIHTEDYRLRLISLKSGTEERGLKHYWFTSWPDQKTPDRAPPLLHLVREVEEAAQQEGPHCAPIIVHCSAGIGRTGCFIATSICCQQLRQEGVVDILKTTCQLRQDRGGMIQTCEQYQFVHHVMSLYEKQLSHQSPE
compound,measurement,setting,value
COc1ccc(C(=O)NC2CCc3ccccc32)cc1OC1CCN(C(C)C)CC1 (stereo unspecified),IC50,[1],5.55 µM (active)
same,IC50,[2],3.36 µM (active)
same,IC50,[3],2.12 µM (active)
CCN1CCN(C(=S)c2ccc(Cl)c(Cl)c2)CC1,IC50,[4],810 nM (active)
same,IC50,[5],18.2 µM (active)
same,IC50,[6],843 nM (active)
same,IC50,[7],> 80 µM (inactive)
Cc1nc(SCC(=O)NC2CCCCC2)nc(O)c1C,CC50,[8],> 50 µM (active)
Nc1ncnc(N2CCc3ccccc32)c1[N+](=O)[O-],IC50,Interleukin-8 [9],40.1 µM (inactive)
same,AC50,HEK293,4.52 µM (active)
same,IC50,Interleukin-8 [10],> 79 µM (inactive)
